Like-named read-outs stand apart in the source and are kept apart here.
Legend:
MDA-MB-231 cells = test: MTT-based cell viability assay; design: species or system human; conditions: for MTT-based relative viability: relative to cn = 1.00, peptide concentration not given, treated two days, OD 562 nm
Method: (§1) Using 96-well plates with approximately 2000 cells per well, an MTT-based metabolic activity assay was performed. The cells were treated with agents and incubated for two days. On the fourth day, they were stained with 0.5 mg/mL thiazolyl blue tetrazolium bromide (M5655, Sigma). The optical density, used to assess metabolic activity, was measured at 562 nm. For the EdU-based proliferation activity assay, the cells were seeded in 96-well plates at about 1000 cells per well. A fluorescence-based cell proliferation kit (Click-iT™, EdU Alexa Fluor™ 488 Imaging Kit; Thermo Fisher, Waltham, MA, USA) was used according to the manufacturer’s instructions.

[1] = system: human triple-negative breast cancer tissue; test: Ex vivo cancer tissue assay; format: cell-based; conditions: 5 µM Cisplatin or Taxol with 25 µg/mL of P18; 48 and 96 h; n = 6
Method: The usage of human triple-negative breast cancer tissue was approved by the Indiana University Institutional Review Board (1911155674), and the tissues were received from the Indiana University Simon Comprehensive Cancer Center Tissue Procurement Core. Freshly isolated breast cancer tissue (~10 mg) was manually fragmented with a scalpel into small pieces (0.5~0.8 mm in length), which were grown in DMEM with 10% FBS and antibiotics for a day. […] The culture medium, consisting of these agents, was applied for 4 days, and a change in the fragment size was determined.

MDA-MB-436 cells = test: MTT-based cell viability assay; design: species or system human; conditions: for MTT-based relative viability: relative to cn = 1.00, peptide concentration not given, treated two days, OD 562 nm
Method: as §1

MCF7 cells = test: MTT-based cell viability assay; design: species or system human
Method: as §1

[2] = system: 4T1.2 mammary tumor cells; test: MTT-based cell viability assay; design: species or system mouse
Method: as §1

PANC198 PDAC cells = test: MTT-based cell viability assay; conditions: PANC198 (PAN198)
Method: as §1

PANC1 PDAC cells = test: MTT-based cell viability assay
Method: as §1

[3] = system: TT2 osteosarcoma cell line; test: MTT-based cell viability assay; conditions: TT2 OS cells
Method: as §1

Row | Molecule | MTT-based relative viability (MDA-MB-436 cells) | MTT-based relative viability (MDA-MB-231 cells) | further results
1 | N.N.[Cl][Pt][Cl] [Cisplatin, reference compound] | – | – | IC50 (MDA-MB-231 cells; drug alone, read-out: IC50, MTT-based viability): 1200 nM; IC50 (MDA-MB-231 cells; drug in combination with P18, read-out: IC50, MTT-based viability, with application of P18): 500 nM; size of cancer tissues, drug with concurrent P18 versus drug alone [1]: more pronounced reduction in the size
2 | CC(=O)O[C@H]1C(=O)[C@@]2(C)[C@H]([C@H](OC(=O)c3ccccc3)[C@]3(O)C[C@H](OC(=O)[C@H](O)[C@@H](NC(=O)c4ccccc4)c4ccccc4)C(C)=C1C3(C)C)[C@]1(OC(C)=O)CO[C@@H]1C[C@@H]2O [Taxol, reference compound] | – | – | IC50 (MDA-MB-231 cells; Homo sapiens, drug alone, read-out: IC50, MTT-based viability): 700 nM; IC50 (MDA-MB-231 cells; Homo sapiens, drug in combination with P18, read-out: IC50, MTT-based viability, with application of P18): 300 nM; size of cancer tissues, drug with concurrent P18 versus drug alone [1]: more pronounced reduction in the size
3 | DQVANSAFVER [P19, ACP candidate … from Hsp90aa1] | 0.96 | 1.09 | –
4 | EEAESTLQSFR [P14, ACP candidate … from Vim] | 0.84 | 0.88 | –
5 | FEDENFILK [P11, ACP candidate … from Ppia] | 0.95 | 0.96 | –
6 | FEELNADLFR [P21, ACP candidate … from Hspa8] | 0.92 | 0.89 | –
7 | IDTIEIITDR [P15, ACP candidate … from Hnrn] | 0.95 | 0.93 | –
8 | IEVIEIMTDR [P22, ACP candidate … from Hnrnpa1] | 0.88 | 0.86 | –
9 | LGDLYEEEMR [P17, ACP candidate … from Vim] | 0.99 | 1.10 | –
10 | NDLAVVDVR [P13, ACP candidate … from Ncl] | 0.95 | 0.98 | –
11 | QITLNDLPVGR [P20, ACP candidate … from Prdx4] | 0.86 | 0.87 | –
12 | TDYMVGSYGPR-NH2 [P18-NH2, C-terminal-amidated P18, …-NH2] | – | – | tumor-suppressor effect compared with the original P18 (MTT) (MCF7 cells): did not improve the tumor-suppressor effect; tumor-suppressor effect compared with the original P18 (MTT) (MDA-MB-436 cells): did not improve the tumor-suppressor effect; tumor-suppressor effect compared with the original P18 (MTT) (MDA-MB-231 cells): did not improve the tumor-suppressor effect; tumor-suppressor effect compared with the original P18 (MTT) [2]: did not improve the tumor-suppressor effect; tumor-suppressor effect compared with the original P18 (MTT) (PANC198 PDAC cells): did not improve the tumor-suppressor effect; tumor-suppressor effect compared with the original P18 (MTT) (PANC1 PDAC cells): did not improve the tumor-suppressor effect; tumor-suppressor effect compared with the original P18 (MTT) [3]: did not improve the tumor-suppressor effect
13 | VNFTVDQIR [P12, ACP candidate … from Eef2] | 0.92 | 0.94 | –
14 | YEWDVAEAR [P16, ACP candidate … from Eef2] | 0.96 | 0.93 | –
15 | Arhgdia: Rho GDP dissociation inhibitor alpha; human recombinant ARHGDIA protein (MyBioSource) (protein, UniProt P52565 2-204, looked up) Rho GDP-dissociation …: AEQEPTAEQLAQIAAENEEDEHSVNYKPPAQKSIQEIQELDKDDESLRKYKEALLGRVAVSADPNVPNVVVTGLTLVCSSAPGPLELDLTGDLESFKKQSFVLKEGVEYRIKISFRVNREIVSGMKYIQHTYRKGVKIDKTDYMVGSYGPRAEEYEFLTPVEEAPKGMLARGSYSIKSRFTDDDKTDHLSWEWNLTIKKDWKD | – | – | MTT-based cell viability (MDA-MB-231 cells; 5 μg/mL of recombinant ARHGDIA protein): significant reduction

Reference: publication PMC11202002, “P18: Novel Anticancer Peptide from Induced Tumor-Suppressing Cells Targeting Breast Cancer and Bone Metastasis” (Cancers, 2024)
